# Test system: PC-3 cells
# Test: PC-3 Oxygen Rate Consumption (OCR) Assay
# Type: cell-based
# Conditions: Homo sapiens, 0.05 h, medium with 2% FBS, OCR at 3-min post-injection normalized to % increase over DMSO-treated cells, concentration for half-maximal OCR increase, read-out: EC50-PC3-OCR-FBS-3min
# Summary of the method: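 Oxygen consumption read on Seahorse XFe96: three basal measurements, then compound injection and 10 cycles over 30 min. EC50 defined as concentration giving half-maximal OCR rise, using 3-min post-injection values as % above DMSO controls, six replicates per treatment, in PC-3 cells in glucose/pyruvate medium.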
row,SMILES,EC50 [µM]
1,"Cc1ncc(S(=O)(=O)Nc2cc(C(F)(F)F)ccc2C(=O)NC23CCC(C#N)(CC2)CC3)s1 [Example 76, N-(4-cyanobicyclo[2.2.2]octan-1-yl)-2-((2-methylthiazole)-5-sulfonamido)-4-(trifluoromethyl)benzamide]",9.19
2,"COc1ccc(S(=O)(=O)Nc2ccc(C(F)(F)F)cc2C(=O)NC23CCC(C#N)(CC2)CC3)cc1 [Example 121, N-(4-cyanobicyclo[2.2.2]octan-1-yl)-2-((4-methoxyphenyl)sulfonamido)-5-(trifluoromethyl)benzamide]",2.26
3,"COc1ccc(C(=O)NC23CC(C(F)(F)F)(C2)C3)c(NS(=O)(=O)c2ccc(S(C)(=O)=O)cc2)c1 [Example 88, 4-methoxy-2-((4-(methylsulfonyl)phenyl)sulfonamido)-N-(3-(trifluoromethyl)bicyclo[1.1.1]pentan-1-yl)benzamide]",26.3
4,"CC1(S(=O)(=O)Nc2cc(C(F)(F)F)ccc2C(=O)NC23CC(C#N)(C2)C3)CC1 [Example 64, N-(3-cyanobicyclo[1.1.1]pentan-1-yl)-2-((1-methylcyclopropane)-1-sulfonamido)-4-(trifluoromethyl)benzamide]",5.22
5,"COC12CC(NC(=O)c3cc(C(F)(F)F)ccc3NS(=O)(=O)C(C)(C)C)(C1)C2 [Example 169, 2-((1,1-dimethylethyl)sulfonamido)-N-(3-methoxybicyclo[1.1.1]pentan-1-yl)-5-(trifluoromethyl)benzamide]",11.4
6,"CC(C)S(=O)(=O)Nc1cc(C#N)ccc1C(=O)NC12CCC(C#N)(CC1)CC2 [Example 78, 4-cyano-N-(4-cyanobicyclo[2.2.2]octan-1-yl)-2-((1-methylethyl)sulfonamido)benzamide]",39.8
7,"N#CC12CCC(NC(=O)c3cc(C(F)(F)F)ccc3NS(=O)(=O)c3ccccc3)(CC1)CC2 [Example 122, N-(4-cyanobicyclo[2.2.2]octan-1-yl)-2-(phenylsulfonamido)-5-(trifluoromethyl)benzamide]",1.52
8,"CC(C)S(=O)(=O)Nc1ccc(C(F)(F)F)cc1C(=O)NC12CC(Cl)(C1)C2 [Example 70, N-(3-chlorobicyclo[1.1.1]pentan-1-yl)-2-((1-methylethyl)sulfonamido)-5-(trifluoromethyl)benzamide]",0.591
9,"O=C(NC12CC(C(F)(F)F)(C1)C2)c1ccc(C(F)(F)F)cc1NS(=O)(=O)c1ccc(OC(F)(F)F)cc1 [Example 6, 2-((4-(trifluoromethoxy)phenyl)sulfonamido)-4-(trifluoromethyl)-N-(3-(trifluoromethyl)bicyclo[1.1.1]pentan-1-yl)benzamide]",0.267
10,"CC(C)(C)c1ccc(C(=O)NC23CC(C#N)(C2)C3)c(NS(=O)(=O)c2ccc(S(C)(=O)=O)cc2)c1 [Example 14, 4-(tert-butyl)-N-(3-cyanobicyclo[1.1.1]pentan-1-yl)-2-((4-(methylsulfonyl)phenyl)sulfonamido)benzamide]",≥ 20
11,"CCS(=O)(=O)Nc1cc(C(F)(F)F)ccc1C(=O)NC12CCC(C#N)(CC1)CC2 [Example 133, N-(4-cyanobicyclo[2.2.2]octan-1-yl)-2-(ethylsulfonamido)-4-(trifluoromethyl)benzamide]",14.7
12,"O=C(NC12CC(C(F)(F)F)(C1)C2)c1ccc(C(F)(F)F)cc1NS(=O)(=O)c1ccc(-c2ncccn2)cc1 [Example 101, 2-((4-(pyrimidin-2-yl)phenyl)sulfonamido)-4-(trifluoromethyl)-N-(3-(trifluoromethyl)bicyclo[1.1.1]pentan-1-yl)benzamide]",1.18
13,"CS(=O)(=O)Nc1cc(F)c(F)cc1C(=O)NC12CCC(C#N)(CC1)CC2 [Example 215, N-(4-cyanobicyclo[2.2.2]octan-1-yl)-4,5-difluoro-2-(methylsulfonamido)benzamide]",21.4
14,"N#CC12CC(NC(=O)c3ccc(C(F)(F)F)cc3NS(=O)(=O)c3ccccc3)(C1)C2 [Example 41, N-(3-cyanobicyclo[1.1.1]pentan-1-yl)-2-(phenylsulfonamido)-4-(trifluoromethyl)benzamide]",2.16
15,"CC(C)(C)S(=O)(=O)Nc1cc(C(F)(F)F)ccc1C(=O)NC12CCC(C#N)(CC1)CC2 [Example 114, N-(4-cyanobicyclo[2.2.2]octan-1-yl)-2-((1,1-dimethylethyl)sulfonamido)-4-(trifluoromethyl)benzamide]",3.48
16,"[2H]C([2H])([2H])C(c1ccc(S(=O)(=O)Nc2ccc(S(C)(=O)=O)cc2C(=O)NC23CC(C(F)(F)F)(C2)C3)cc1)(C([2H])([2H])[2H])C([2H])([2H])[2H] [Example 151, 2-((4-(2-(methyl-d3)propan-2-yl-1,1,1,3,3,3-d6)phenyl)sulfonamido)-5-(methylsulfonyl)-N-(3-(trifluoromethyl)bicyclo[1.1.1]pentan-1-yl)benzamide]",9.39

row,SMILES,EC50 [µM]
1,"CS(=O)(=O)c1ccc(S(=O)(=O)Nc2cc(C(F)(F)F)ccc2C(=O)NC23CCC(F)(CC2)CC3)cc1 [Example 9, N-(4-fluorobicyclo[2.2.2]octan-1-yl)-2-((4-(methylsulfonyl)phenyl)sulfonamido)-4-(trifluoromethyl)benzamide]",5.56
2,"O=C(NC12CC(C(F)(F)F)(C1)C2)c1ccc(C(F)(F)F)cc1NS(=O)(=O)c1ccc(-c2nnn[nH]2)cc1 [Example 159, 2-((4-(1H-tetrazol-5-yl)phenyl)sulfonamido)-4-(trifluoromethyl)-N-(3-(trifluoromethyl)bicyclo[1.1.1]pentan-1-yl)benzamide]",≥ 200
3,"CS(=O)(=O)Nc1cc(C#N)ccc1C(=O)NC12CC(C(F)(F)F)(C1)C2 [Example 148, 4-cyano-2-(methylsulfonamido)-N-(3-(trifluoromethyl)bicyclo[1.1.1]pentan-1-yl)benzamide]",17.7
4,"CS(=O)(=O)c1ccc(S(=O)(=O)Nc2ccc(Cl)cc2C(=O)NC23CC(c4ccccc4)(C2)C3)cc1 [Example 91, 5-chloro-2-((4-(methylsulfonyl)phenyl)sulfonamido)-N-(3-phenylbicyclo[1.1.1]pentan-1-yl)benzamide]",2.97
5,"CS(=O)(=O)Nc1cccc(F)c1C(=O)NC12CC(C(F)(F)F)(C1)C2 [Example 142, 2-fluoro-6-(methylsulfonamido)-N-(3-(trifluoromethyl)bicyclo[1.1.1]pentan-1-yl)benzamide]",≥ 100
6,"CC(C)(C)c1ccc(C(=O)NC23CC(C(F)(F)F)(C2)C3)c(NS(=O)(=O)c2ccc(S(C)(=O)=O)cc2)c1 [Example 13, 4-(tert-butyl)-2-((4-(methylsulfonyl)phenyl)sulfonamido)-N-(3-(trifluoromethyl)bicyclo[1.1.1]pentan-1-yl)benzamide]",5.72
7,"O=C(NC12CC(c3ccccc3)(C1)C2)c1ccccc1NS(=O)(=O)c1ccc(-n2ccnc2)cc1 [Example 36, 2-((4-(1H-imidazol-1-yl)phenyl)sulfonamido)-N-(3-phenylbicyclo[1.1.1]pentan-1-yl)benzamide]",≥ 20
8,"O=C(NC12CCC(C(F)(F)F)(CC1)CC2)c1ccc(Cl)cc1NS(=O)(=O)C1CCS(=O)(=O)CC1 [Example 241, 4-chloro-2-((1,1-dioxidotetrahydro-2H-thiopyran)-4-sulfonamido)-N-(4-(trifluoromethyl)bicyclo[2.2.2]octan-1-yl)benzamide]",6.38
9,"CC(C)(C)c1ccc(S(=O)(=O)Nc2cc(F)ccc2C(=O)NC23CC(C(F)(F)F)(C2)C3)cc1 [Example 3, 2-((4-(tert-butyl)phenyl)sulfonamido)-4-fluoro-N-(3-(trifluoromethyl)bicyclo[1.1.1]pentan-1-yl)benzamide]",0.785
10,"N#CC12CCC(NC(=O)c3cc(C(F)(F)F)ccc3NS(=O)(=O)C3CC3)(CC1)CC2 [Example 125, N-(4-cyanobicyclo[2.2.2]octan-1-yl)-2-(cyclopropanesulfonamido)-5-(trifluoromethyl)benzamide]",12.4
11,"O=C(NC12CCC(C(F)(F)F)(CC1)CC2)c1ccc(F)cc1NS(=O)(=O)C1CCS(=O)(=O)CC1 [Example 238, 2-((1,1-dioxidotetrahydro-2H-thiopyran)-4-sulfonamido)-4-fluoro-N-(4-(trifluoromethyl)bicyclo[2.2.2]octan-1-yl)benzamide]",29.7
12,"N#CC12CCC(NC(=O)c3cc(F)ccc3NS(=O)(=O)CCC(F)(F)F)(CC1)C2 [Example 222, N-(4-cyanobicyclo[2.2.1]heptan-1-yl)-5-fluoro-2-((3,3,3-trifluoropropyl)sulfonamido)benzamide]",5.7
13,"COC12CC(NC(=O)c3cc(C(F)(F)F)ccc3NS(C)(=O)=O)(C1)C2 [Example 170, N-(3-methoxybicyclo[1.1.1]pentan-1-yl)-2-(methylsulfonamido)-5-(trifluoromethyl)benzamide]",44.8
14,"N#CC12CCC(NC(=O)c3cc(C(F)(F)F)ccc3NS(=O)(=O)N3CC(OC(F)(F)F)C3)(CC1)CC2 [Example 227, N-(4-cyanobicyclo[2.2.2]octan-1-yl)-2-((3-(trifluoromethoxy)azetidine)-1-sulfonamido)-5-(trifluoromethyl)benzamide]",1.45
15,"O=C(NC12CC(C(F)(F)F)(C1)C2)c1ccc(C(F)(F)F)cc1NS(=O)(=O)c1ccc(-n2cnnn2)cc1 [Example 17, 2-((4-(1H-tetrazol-1-yl)phenyl)sulfonamido)-4-(trifluoromethyl)-N-(3-(trifluoromethyl)bicyclo[1.1.1]pentan-1-yl)benzamide]",5.83
16,"Cn1cc(S(=O)(=O)Nc2cc(C(F)(F)F)ccc2C(=O)NC23CC(c4ccccc4)(C2)C3)cn1 [Example 39, 2-((1-methyl-1H-pyrazole)-4-sulfonamido)-N-(3-phenylbicyclo[1.1.1]pentan-1-yl)-4-(trifluoromethyl)benzamide]",7.34
